Laboratory results as given in ChEMBL document CHEMBL5370660, “Design of a Supersoft Topical JAK Inhibitor, Which Is Effective in Human Skin but Rapidly Deactivated in Blood” (J Med Chem, 2023).
Values after ≈ are worked out from the molar mass of the structure shown. Active and inactive are the calls of the source. No cut-off for these calls is given here.

How the values were obtained:
[1] = Metabolic stability in human skin S9 fraction measured upto 120 mins by LC-MS analysis; format: ADME, subcellular
[2] = Stability in human whole blood assessed as half life at 1 uM incubated upto 8 hrs by LC-MS/MS analysis; format: ADME, tissue-based
[3] = molecular target: T1, Tyrosine-protein kinase JAK3 (Homo sapiens, UniProt P52333); test: Inhibition of GST-fused JAK3 (811 to 1124 residues)(unknown origin) using Carboxyfluorescein-Ahx-GGEEEEYFELVKKKK peptide as substrate incubated for 30 mins in presence of ATP by caliper microfluidic mobility shift assay
T1 sequence (P52333 whole entry): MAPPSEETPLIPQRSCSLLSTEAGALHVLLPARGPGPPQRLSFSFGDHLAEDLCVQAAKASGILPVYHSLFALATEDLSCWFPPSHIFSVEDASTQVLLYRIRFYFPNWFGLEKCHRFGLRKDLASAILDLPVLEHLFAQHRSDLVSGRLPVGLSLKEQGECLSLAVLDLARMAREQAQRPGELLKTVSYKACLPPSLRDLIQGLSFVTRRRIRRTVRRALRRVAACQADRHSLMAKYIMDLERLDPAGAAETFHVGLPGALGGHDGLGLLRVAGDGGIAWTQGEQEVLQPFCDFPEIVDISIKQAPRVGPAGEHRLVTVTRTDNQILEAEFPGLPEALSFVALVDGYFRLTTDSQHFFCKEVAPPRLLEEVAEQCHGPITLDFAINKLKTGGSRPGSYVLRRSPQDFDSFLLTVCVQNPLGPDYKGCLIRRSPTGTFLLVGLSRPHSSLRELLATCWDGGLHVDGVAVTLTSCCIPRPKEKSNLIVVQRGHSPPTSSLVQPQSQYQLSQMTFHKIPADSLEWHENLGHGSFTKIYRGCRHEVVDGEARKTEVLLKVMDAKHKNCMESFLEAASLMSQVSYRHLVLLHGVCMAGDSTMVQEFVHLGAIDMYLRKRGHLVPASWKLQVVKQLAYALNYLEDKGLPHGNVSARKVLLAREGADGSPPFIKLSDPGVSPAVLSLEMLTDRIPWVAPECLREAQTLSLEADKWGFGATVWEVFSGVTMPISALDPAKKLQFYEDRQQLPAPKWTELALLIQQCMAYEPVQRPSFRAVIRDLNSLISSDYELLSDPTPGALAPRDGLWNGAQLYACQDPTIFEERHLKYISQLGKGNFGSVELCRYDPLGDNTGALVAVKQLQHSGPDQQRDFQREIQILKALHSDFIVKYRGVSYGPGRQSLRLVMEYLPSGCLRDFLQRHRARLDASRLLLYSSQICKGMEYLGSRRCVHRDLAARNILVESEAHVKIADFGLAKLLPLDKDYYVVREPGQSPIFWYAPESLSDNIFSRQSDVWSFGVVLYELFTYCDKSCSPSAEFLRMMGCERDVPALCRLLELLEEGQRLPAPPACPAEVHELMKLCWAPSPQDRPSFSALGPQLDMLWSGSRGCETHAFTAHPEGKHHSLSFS

[4] = molecular target: T2, Eukaryotic translation initiation factor 2-alpha kinase 3 (Homo sapiens, UniProt Q9NZJ5); test: Inhibition of EIF2AK3 (unknown origin)
T2 sequence (Q9NZJ5 whole entry): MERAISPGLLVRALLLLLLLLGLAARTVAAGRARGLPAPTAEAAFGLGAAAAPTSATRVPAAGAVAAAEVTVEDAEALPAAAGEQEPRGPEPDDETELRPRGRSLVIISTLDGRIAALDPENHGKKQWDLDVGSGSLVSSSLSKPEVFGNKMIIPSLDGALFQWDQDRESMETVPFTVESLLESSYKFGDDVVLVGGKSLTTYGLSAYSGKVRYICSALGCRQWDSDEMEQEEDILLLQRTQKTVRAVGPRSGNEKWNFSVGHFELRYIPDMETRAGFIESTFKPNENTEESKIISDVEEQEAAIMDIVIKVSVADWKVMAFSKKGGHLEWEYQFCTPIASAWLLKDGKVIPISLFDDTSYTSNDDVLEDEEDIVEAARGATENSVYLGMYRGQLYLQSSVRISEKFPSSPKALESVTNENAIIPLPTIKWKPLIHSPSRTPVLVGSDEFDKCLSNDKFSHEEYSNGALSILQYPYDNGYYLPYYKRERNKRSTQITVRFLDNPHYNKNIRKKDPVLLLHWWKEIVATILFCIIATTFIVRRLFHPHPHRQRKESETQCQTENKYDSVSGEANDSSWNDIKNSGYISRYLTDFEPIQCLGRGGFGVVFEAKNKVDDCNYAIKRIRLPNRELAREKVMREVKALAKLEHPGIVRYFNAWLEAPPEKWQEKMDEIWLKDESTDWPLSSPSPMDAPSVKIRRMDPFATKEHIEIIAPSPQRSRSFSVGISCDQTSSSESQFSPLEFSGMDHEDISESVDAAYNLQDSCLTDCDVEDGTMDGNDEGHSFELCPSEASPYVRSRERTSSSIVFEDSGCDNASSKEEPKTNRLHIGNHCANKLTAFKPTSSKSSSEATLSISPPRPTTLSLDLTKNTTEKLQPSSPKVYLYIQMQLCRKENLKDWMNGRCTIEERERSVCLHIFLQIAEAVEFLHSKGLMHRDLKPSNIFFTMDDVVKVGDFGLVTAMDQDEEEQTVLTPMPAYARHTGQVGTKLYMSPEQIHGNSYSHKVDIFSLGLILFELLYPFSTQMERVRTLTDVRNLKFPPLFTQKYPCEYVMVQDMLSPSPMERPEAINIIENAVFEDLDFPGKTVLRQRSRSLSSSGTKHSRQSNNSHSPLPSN

[5] = Permeability of compound; format: ADME; details: not told; read-out: permeability
[6] = molecular target: T3, Mitogen-activated protein kinase kinase kinase 2 (Homo sapiens, UniProt Q9Y2U5); test: Inhibition of MAP3K2 (unknown origin)
T3 sequence (Q9Y2U5 whole entry): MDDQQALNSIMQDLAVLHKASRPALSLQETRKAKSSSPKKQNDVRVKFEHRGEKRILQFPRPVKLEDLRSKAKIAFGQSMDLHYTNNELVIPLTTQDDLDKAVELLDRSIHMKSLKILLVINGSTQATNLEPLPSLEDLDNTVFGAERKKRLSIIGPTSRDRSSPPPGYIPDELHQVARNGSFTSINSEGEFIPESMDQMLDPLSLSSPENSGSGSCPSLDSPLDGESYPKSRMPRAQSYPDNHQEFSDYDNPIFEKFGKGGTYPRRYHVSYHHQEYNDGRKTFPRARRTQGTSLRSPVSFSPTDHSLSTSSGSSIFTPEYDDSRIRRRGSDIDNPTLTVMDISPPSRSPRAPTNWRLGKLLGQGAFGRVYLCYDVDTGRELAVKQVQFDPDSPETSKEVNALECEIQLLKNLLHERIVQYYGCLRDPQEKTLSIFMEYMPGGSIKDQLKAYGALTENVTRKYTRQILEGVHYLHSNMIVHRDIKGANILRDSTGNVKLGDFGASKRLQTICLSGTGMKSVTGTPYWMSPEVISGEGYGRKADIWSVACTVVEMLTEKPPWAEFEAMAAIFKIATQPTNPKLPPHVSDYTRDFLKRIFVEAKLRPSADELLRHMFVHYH

[7] = molecular target: JAK2/JAK1 (Homo sapiens, UniProt O60674+P23458); test: Inhibition of JAK1/2-mediated STAT1 phosphorylation in human M07E cells preincubated for 30 mins followed by IFN-alpha stimulation measured after 15 mins by flow cytometry; format: cell-based
Sequence of JAK2/JAK1 (P23458 whole entry): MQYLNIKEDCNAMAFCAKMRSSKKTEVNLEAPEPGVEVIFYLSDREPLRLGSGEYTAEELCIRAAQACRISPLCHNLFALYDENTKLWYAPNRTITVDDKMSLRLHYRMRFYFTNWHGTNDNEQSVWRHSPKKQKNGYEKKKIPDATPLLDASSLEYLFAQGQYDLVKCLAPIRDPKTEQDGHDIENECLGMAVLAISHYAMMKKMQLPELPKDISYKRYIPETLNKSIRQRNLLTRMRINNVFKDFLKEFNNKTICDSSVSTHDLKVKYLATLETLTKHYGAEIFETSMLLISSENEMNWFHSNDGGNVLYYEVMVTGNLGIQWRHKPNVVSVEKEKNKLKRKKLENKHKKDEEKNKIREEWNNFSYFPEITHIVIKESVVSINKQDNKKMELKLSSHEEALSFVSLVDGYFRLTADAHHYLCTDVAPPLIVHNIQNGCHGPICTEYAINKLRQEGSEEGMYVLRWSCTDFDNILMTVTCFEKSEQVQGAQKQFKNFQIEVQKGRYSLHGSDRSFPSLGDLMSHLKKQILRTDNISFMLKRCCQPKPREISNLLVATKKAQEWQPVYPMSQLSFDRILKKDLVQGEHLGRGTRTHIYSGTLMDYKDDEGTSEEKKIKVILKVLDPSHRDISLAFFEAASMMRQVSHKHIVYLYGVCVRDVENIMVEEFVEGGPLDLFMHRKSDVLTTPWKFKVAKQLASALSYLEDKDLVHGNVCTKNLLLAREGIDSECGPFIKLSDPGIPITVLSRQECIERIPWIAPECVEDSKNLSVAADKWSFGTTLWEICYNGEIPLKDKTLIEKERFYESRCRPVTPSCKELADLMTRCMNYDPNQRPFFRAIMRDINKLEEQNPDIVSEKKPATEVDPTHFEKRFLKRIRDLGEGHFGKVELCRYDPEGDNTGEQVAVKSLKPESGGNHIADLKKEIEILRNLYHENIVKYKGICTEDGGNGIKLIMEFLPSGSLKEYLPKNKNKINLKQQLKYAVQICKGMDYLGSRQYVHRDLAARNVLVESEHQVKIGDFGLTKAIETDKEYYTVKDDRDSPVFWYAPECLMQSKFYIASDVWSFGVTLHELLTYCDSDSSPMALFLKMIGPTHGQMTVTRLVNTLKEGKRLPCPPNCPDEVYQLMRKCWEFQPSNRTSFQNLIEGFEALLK
Sequence of JAK2/JAK1 (O60674 whole entry): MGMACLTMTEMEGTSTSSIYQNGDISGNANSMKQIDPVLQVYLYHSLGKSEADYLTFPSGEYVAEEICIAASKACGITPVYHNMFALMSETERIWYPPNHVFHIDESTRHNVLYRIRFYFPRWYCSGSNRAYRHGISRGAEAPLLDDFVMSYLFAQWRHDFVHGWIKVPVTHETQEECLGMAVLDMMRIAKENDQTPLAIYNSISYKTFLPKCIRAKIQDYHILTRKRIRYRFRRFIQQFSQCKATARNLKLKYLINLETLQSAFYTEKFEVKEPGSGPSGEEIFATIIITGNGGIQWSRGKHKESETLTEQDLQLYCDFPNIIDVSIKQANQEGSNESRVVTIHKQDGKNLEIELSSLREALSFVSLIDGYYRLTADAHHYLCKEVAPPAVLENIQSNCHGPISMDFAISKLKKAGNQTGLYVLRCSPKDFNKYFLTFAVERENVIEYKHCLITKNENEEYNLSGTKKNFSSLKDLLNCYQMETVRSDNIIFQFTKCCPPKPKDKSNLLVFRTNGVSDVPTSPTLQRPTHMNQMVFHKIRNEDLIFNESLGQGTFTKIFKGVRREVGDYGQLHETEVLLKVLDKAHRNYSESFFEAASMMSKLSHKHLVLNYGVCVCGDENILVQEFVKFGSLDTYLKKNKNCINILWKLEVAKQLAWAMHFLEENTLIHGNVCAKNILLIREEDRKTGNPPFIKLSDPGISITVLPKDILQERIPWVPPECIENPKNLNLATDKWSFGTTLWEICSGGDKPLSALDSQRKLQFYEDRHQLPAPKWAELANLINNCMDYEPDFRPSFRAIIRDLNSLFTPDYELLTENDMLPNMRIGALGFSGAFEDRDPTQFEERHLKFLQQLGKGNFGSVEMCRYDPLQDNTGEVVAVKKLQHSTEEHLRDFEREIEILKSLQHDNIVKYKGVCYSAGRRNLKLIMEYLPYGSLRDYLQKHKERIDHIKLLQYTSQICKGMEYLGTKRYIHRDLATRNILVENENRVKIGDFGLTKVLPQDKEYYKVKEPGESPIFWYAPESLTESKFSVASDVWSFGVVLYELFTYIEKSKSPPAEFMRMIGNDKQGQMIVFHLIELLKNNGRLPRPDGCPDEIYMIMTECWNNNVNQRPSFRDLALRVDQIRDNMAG

[8] = Lipophilicity, LogD of compound; format: physicochemical; details: octanol/water
[9] = molecular target: Tyrosine-protein kinase JAK2 (Homo sapiens, UniProt O60674); test: Inhibition of GST-fused JAK2 (808 to 1132 residues)(unknown origin) using Carboxyfluorescein-Ahx-GGEEEEYFELVKKKK peptide as substrate incubated for 30 mins in presence of ATP by caliper microfluidic mobility shift assay
Sequence of Tyrosine-protein kinase JAK2 (O60674 whole entry, the tested form may be a part): as the sequence (O60674 whole entry) above

[10] = molecular target: Tyrosine-protein kinase JAK1 (Homo sapiens, UniProt P23458); test: Inhibition of GST-fused JAK1 (866 to 1154 residues)(unknown origin) using FITC-Ahr-KKSRGDYMTMQIG-NH2 peptide as substrate incubated for 30 mins in presence of ATP by caliper microfluidic mobility shift assay
Sequence of Tyrosine-protein kinase JAK1 (P23458 whole entry, the tested form may be a part): as the sequence (P23458 whole entry) above

[11] = molecular target: T4, JAK3/JAK1 (Homo sapiens, UniProt P23458+P52333); test: Inhibition of JAK1/3-mediated STAT5 phosphorylation in human whole blood incubated for 30 mins followed by IL-2 addition measured after 15 mins by flow cytometry; format: tissue-based
T4 sequence (P23458 whole entry, one chain of several): as the sequence (P23458 whole entry) above

[12] = molecular target: T4, JAK3/JAK1; test: Inhibition of JAK1/3-mediated STAT5 phosphorylation in human M07E cells preincubated for 30 mins followed by IL-15 stimulation measured after 15 mins by flow cytometry; format: cell-based
[13] = molecular target: Non-receptor tyrosine-protein kinase TYK2 (Homo sapiens, UniProt P29597); test: Inhibition of GST-fused TYK2 (888 to 1187 residues)(unknown origin) using FITC-Ahr-KKSRGDYMTMQIG-NH2 peptide as substrate incubated for 30 mins in presence of ATP by caliper microfluidic mobility shift assay
Sequence of Non-receptor tyrosine-protein kinase TYK2 (P29597 whole entry, the tested form may be a part): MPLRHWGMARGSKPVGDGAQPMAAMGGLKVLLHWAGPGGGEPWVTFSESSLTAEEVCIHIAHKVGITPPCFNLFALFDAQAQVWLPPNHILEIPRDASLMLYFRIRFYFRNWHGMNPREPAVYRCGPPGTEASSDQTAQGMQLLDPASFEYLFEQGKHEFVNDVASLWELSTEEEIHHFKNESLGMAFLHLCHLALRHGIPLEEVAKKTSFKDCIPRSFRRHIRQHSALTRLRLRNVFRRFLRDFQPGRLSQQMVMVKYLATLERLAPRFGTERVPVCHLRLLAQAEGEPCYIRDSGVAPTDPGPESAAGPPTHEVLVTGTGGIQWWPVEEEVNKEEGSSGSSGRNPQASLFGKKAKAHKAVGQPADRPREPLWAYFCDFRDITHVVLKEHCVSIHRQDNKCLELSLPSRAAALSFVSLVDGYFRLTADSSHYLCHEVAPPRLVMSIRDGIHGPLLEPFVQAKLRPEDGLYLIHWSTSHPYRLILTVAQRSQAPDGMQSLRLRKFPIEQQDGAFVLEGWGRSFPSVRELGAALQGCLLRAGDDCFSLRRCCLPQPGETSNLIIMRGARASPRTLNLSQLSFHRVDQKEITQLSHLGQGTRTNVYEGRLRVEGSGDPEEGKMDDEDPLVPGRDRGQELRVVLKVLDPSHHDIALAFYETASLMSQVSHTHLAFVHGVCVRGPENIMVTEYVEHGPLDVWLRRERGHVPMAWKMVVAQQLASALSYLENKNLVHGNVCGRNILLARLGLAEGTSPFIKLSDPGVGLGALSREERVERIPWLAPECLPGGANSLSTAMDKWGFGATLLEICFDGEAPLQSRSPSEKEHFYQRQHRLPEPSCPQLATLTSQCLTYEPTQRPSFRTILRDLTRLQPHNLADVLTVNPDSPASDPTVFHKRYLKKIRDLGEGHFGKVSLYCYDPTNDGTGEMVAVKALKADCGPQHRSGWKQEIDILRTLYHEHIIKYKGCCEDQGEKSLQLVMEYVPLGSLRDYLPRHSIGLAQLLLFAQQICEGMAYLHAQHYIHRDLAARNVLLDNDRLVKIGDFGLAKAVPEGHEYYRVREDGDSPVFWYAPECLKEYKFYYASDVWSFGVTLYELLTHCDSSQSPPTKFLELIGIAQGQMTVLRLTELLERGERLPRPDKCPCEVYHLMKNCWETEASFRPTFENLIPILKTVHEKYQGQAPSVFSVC

[14] = Saturation solubility of compound in PEG400/transcutol/benzyl alcohol/water mixture using amorphous form of sample; format: physicochemical
[15] = Solubility of the compound at pH 6.8 using amorphous form of sample; format: physicochemical; details: buffer
[16] = Stability of compound under light stress assessed as compound decomposition under sunlight with intensity of 4000 KJ/m2, irradiation of 250 W/m2, wavelength of >290 nm, temperature of 37 degreeC for 4 hrs using amorphous form of sample; format: ADME; details: read-out: Drug degradation
[17] = Stability of compound under temperature stress assessed as compound degradation at 50 degreeC measured after 7 days using amorphous form of sample; format: physicochemical; details: time 7 day; read-out: Drug degradation
[18] = tested on: Homo sapiens; test: Downregulation of GSVA score in human abdominal skin model at 0.2 % administered topically as cream treated for 24 hrs followed by removal of cream and stratum corneum and subsequently stimulated with IL-4/IL-13 measured after 3 hrs; format: functional, tissue-based; details: Abdomen skin, route top, time 27.0 hrs
[19] = Stability of compound in fresh human skin explant using Franz diffusion cell model assessed as compound concentration in dermis at 0.5 % administered topically preincubated overnight followed by fresh media replacement in receiver fluid without compound and subsequently stimulated with IL-4/IL-13 measured after 40 hrs by LC-MS/MS analysis; format: ADME, tissue-based, Skin of body; details: topical or ocular, read-out: Ct
[20] = tested on: Homo sapiens; test: Inhibition of TARC gene expression in IL-4/IL-13-stimulated fresh human skin explant using Franz diffusion cell model at 0.5 % administered topically preincubated overnight followed by fresh media replacement in receiver fluid without compound and subsequently stimulated with IL-4/IL-13 measured after 24 hrs by RT-qPCR analysis; format: functional, tissue-based; details: Skin of body
[21] = Drug penetration in fresh human skin explant using Franz diffusion cell model assessed as compound concentration in receiver fluid at 0.5 % administered topically preincubated overnight followed by fresh media replacement in receiver fluid without compound and subsequently stimulated with IL-4/IL-13 measured after 24 hrs by LC-MS/MS analysis; format: ADME, tissue-based, Skin of body
[22] = Thermodynamic solubility of the compound at pH 6.8 using crystalline form of sample; format: physicochemical; details: read-out: Therm_solubility
[23] = tested on: Homo sapiens; test: Inhibition of MMP12 gene expression in IL-4/IL-13-stimulated fresh human skin explant using Franz diffusion cell model at 0.5 % administered topically preincubated overnight followed by fresh media replacement in receiver fluid without compound and subsequently stimulated with IL-4/IL-13 measured after 24 hrs by RT-qPCR analysis; format: functional, tissue-based; details: Skin of body
[24] = Saturation solubility of compound in PEG400/transcutol/benzyl alcohol/water mixture using crystalline form of sample; format: physicochemical
[25] = molecular target: T5, C-C motif chemokine 17 (Homo sapiens, UniProt Q92583); test: Inhibition of TARC in human skin immersion culture at 10 uM preincubated for 3 hrs followed by IL-4/IL-13 stimulation measured after 18 hrs by MSD assay relative to control; format: tissue-based, Skin of body; details: time 21 hrs
T5 sequence (Q92583 whole entry): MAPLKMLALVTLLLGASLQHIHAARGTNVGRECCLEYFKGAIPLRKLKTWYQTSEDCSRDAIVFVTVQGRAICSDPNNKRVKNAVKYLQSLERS

[26] = tested on: Homo sapiens; test: Inhibition of Eotaxin-3 gene expression in IL-4/IL-13-stimulated fresh human skin explant using Franz diffusion cell model at 0.5 % administered topically preincubated overnight followed by fresh media replacement in receiver fluid without compound and subsequently stimulated with IL-4/IL-13 measured after 24 hrs by RT-qPCR analysis; format: functional, tissue-based; details: Skin of body
[27] = Half life in human blood; format: ADME, tissue-based

COc1ccccc1Nc1cc(Nc2ccc(CC(=O)O)cn2)ncc1C(N)=O
half-life [1]: < 240 min
half-life at 1 µM [2]: > 240 min
IC50 [3]: 10 nM
IC50 [4]: < 100 nM
Papp [5]: 0.5 ×10⁻⁶ cm/s
IC50 [6]: < 100 nM
IC50 [7]: > 10000 nM
logD [8]: 0.25
IC50 [9]: 11 nM
IC50 [10]: 5 nM
IC50 [11]: > 40000 nM
IC50 [12]: 7020 nM
IC50 [13]: 7 nM

COC(=O)Cc1ccc(Nc2cc(Nc3ccccc3Cl)c(C(N)=O)cn2)nc1
solubility thermodynamic [14]: 5400 µg/mL (≈ 13.1 mM)
half-life [1]: 12 min
half-life at 1 µM [2]: 5 min
IC50 [3]: 13 nM
solubility [15]: 3 µg/mL (≈ 0.00728 mM)
IC50 [7]: 37 nM
logD [8]: 3.8
IC50 [9]: 10 nM
IC50 [10]: 9 nM
degraded at 4 h [16]: 7%
degraded at 168 h [17]: 11%
IC50 [11]: 7850 nM
IC50 [12]: 27 nM

Cc1cccc(Nc2cc(Nc3ccccc3Cl)c(C(N)=O)cn2)n1
half-life [1]: > 240 min
half-life at 1 µM [2]: > 240 min
Activity [18]: Active
Papp [5]: 6.7 ×10⁻⁶ cm/s
IC50 [7]: 85 nM
logD [8]: 4.4
concentration at 40 h, 0.5 % [19]: 33 µM
inhibition [20]: Active
Drug uptake [21]: 0.004 µM
solubility thermodynamic [22]: 0.1 µg/mL (≈ 0.000283 mM)
inhibition [23]: Active
solubility thermodynamic [24]: 2800 µg/mL (≈ 7.91 mM)
inhibition at 10 µM [25]: 100%
inhibition [26]: Active

CCOC(=O)Oc1cccc(Nc2cc(Nc3ccccc3Cl)c(C(N)=O)cn2)n1
half-life [1]: 7 min
half-life at 1 µM [2]: 4 min
IC50 [7]: 71 nM
IC50 [9]: 5220 nM
half-life [27]: ~4 min
